What was measured:
Assay type in all cases: functional
[1] = test system: Plasmodium berghei; test: Antimalarial activity against Plasmodium berghei NK65 infected in ICR mouse assessed as mean survival days at 54.7 mg/kg, po for 4 days (reference value: 6.2 day); details: time 4 day
[2] = test system: Plasmodium berghei; test: Antimalarial activity against Plasmodium berghei NK65 infected in ICR mouse assessed as reduction in parasitemia at 54.7 mg/kg, po qd for 4 days by Diff-Quik staining based microscopic method (reference value: 0%); details: 96 h, time 4 day
[3] = test system: Plasmodium berghei; test: Antimalarial activity against Plasmodium berghei NK65 infected in ICR mouse assessed as parasitemia at 116.4 mg/kg, po qd for 4 days by Diff-Quik staining based microscopic method (reference value: 28.4 +/- 10.2%); details: time 4 day
[4] = test system: Plasmodium berghei; test: Antimalarial activity against Plasmodium berghei NK65 infected in ICR mouse assessed as reduction in parasitemia at 58.2 mg/kg, po qd for 4 days by Diff-Quik staining based microscopic method (reference value: 0%); details: 96 h, time 4 day
[5] = test system: Plasmodium berghei; test: Antimalarial activity against Plasmodium berghei NK65 infected in ICR mouse assessed as animal mean survival days at 116.4 mg/kg, po qd for 4 days (reference value: 6.2 +/- 0.5 day); details: time 4 day
[6] = test system: Plasmodium berghei; test: Antimalarial activity against Plasmodium berghei NK65 infected in ICR mouse assessed as animal mean survival days at 58.2 mg/kg, po qd for 4 days (reference value: 6.2 +/-0.5 day); details: time 4 day
[7] = test system: Plasmodium berghei; test: Antimalarial activity against Plasmodium berghei NK65 infected in ICR mouse assessed as parasitemia at 58.2 mg/kg, po qd for 4 days by Diff-Quik staining based microscopic method (reference value: 28.4 +/- 10.2%); details: time 4 day
[8] = test system: Plasmodium berghei; test: Antimalarial activity against Plasmodium berghei NK65 infected in ICR mouse assessed as reduction in parasitemia at 116.4 mg/kg, po qd for 4 days by Diff-Quik staining based microscopic method (reference value: 0%); details: 96 h, time 4 day
[9] = test system: Plasmodium berghei; test: Antimalarial activity against Plasmodium berghei NK65 infected in ICR mouse assessed as reduction in parasitemia at 57.2 mg/kg, po qd for 4 days by Diff-Quik staining based microscopic method (reference value: 0%); details: 96 h, time 4 day
[10] = test system: Plasmodium berghei; test: Antimalarial activity against Plasmodium berghei NK65 infected in ICR mouse assessed as reduction in parasitemia at 114.4 mg/kg, po qd for 4 days by Diff-Quik staining based microscopic method (reference value: 0%); details: 96 h, time 4 day
[11] = test system: Plasmodium berghei; test: Antimalarial activity against Plasmodium berghei NK65 infected in ICR mouse assessed as parasitemia at 57.2 mg/kg, po qd for 4 days by Diff-Quik staining based microscopic method (reference value: 28.4 +/- 10.2%); details: time 4 day
[12] = test system: Plasmodium berghei; test: Antimalarial activity against Plasmodium berghei NK65 infected in ICR mouse assessed as animal mean survival days at 57.2 mg/kg, po qd for 4 days (reference value: 6.2 +/- 0.5 day); details: time 4 day
[13] = test system: Plasmodium berghei; test: Antimalarial activity against Plasmodium berghei NK65 infected in ICR mouse assessed as parasitemia at 114.4 mg/kg, po qd for 4 days by Diff-Quik staining based microscopic method (reference value: 28.4 +/- 10.2%); details: time 4 day
[14] = test system: Plasmodium berghei; test: Antimalarial activity against Plasmodium berghei NK65 infected in ICR mouse assessed as animal mean survival days at 114.4 mg/kg, po qd for 4 days (reference value: 6.2 +/- 0.5 day); details: time 4 day
[15] = test system: Plasmodium berghei; test: Antimalarial activity against Plasmodium berghei NK65 infected in ICR mouse assessed as reduction in parasitemia at 115 mg/kg, po qd for 4 days by Diff-Quik staining based microscopic method (reference value: 0%); details: 96 h, time 4 day
[16] = test system: Plasmodium berghei; test: Antimalarial activity against Plasmodium berghei NK65 infected in ICR mouse assessed as reduction in parasitemia at 57.5 mg/kg, po qd for 4 days by Diff-Quik staining based microscopic method (reference value: 0%); details: 96 h, time 4 day
[17] = test system: Plasmodium berghei; test: Antimalarial activity against Plasmodium berghei NK65 infected in ICR mouse assessed as parasitemia at 115 mg/kg, po qd for 4 days by Diff-Quik staining based microscopic method (reference value: 28.4 +/- 10.2%); details: time 4 day
[18] = test system: Plasmodium berghei; test: Antimalarial activity against Plasmodium berghei NK65 infected in ICR mouse assessed as parasitemia at 57.5 mg/kg, po qd for 4 days by Diff-Quik staining based microscopic method (reference value: 28.4 +/- 10.2%); details: time 4 day
[19] = test system: Plasmodium berghei; test: Antimalarial activity against Plasmodium berghei NK65 infected in ICR mouse assessed as animal mean survival days at 115 mg/kg, po qd for 4 days (reference value: 6.2 +/- 0.5 day); details: time 4 day
[20] = test system: Plasmodium berghei; test: Antimalarial activity against Plasmodium berghei NK65 infected in ICR mouse assessed as animal mean survival days at 57.5 mg/kg, po qd for 4 days (reference value: 6.2 +/-0.5 day); details: time 4 day

Question: With `COc1cc2nc(Nc3ccncc3)nc(Nc3ccccc3C)c2cc1OC.Cl` as the compound, how does the MSD [1] read?
Answer: 7.3 days

Question: And the inhibition in vivo at 54.7 mg/kg [2]?
Answer: 60.8%

Question: Which results are given for `CCCCNc1nc(N2CCCC2)nc2cc(OC)c(OC)cc12.Cl`?
Answer: Activity [3]: 0%; inhibition in vivo at 58.2 mg/kg [4]: 95.5%; MSD [5]: 11.6 days; MSD [6]: 17.5 days; Activity [7]: 1.5%; inhibition in vivo at 116.4 mg/kg [8]: > 99%

Question: Which results are given for `COc1cc2nc(N3CCCC3)nc(NC(C)c3ccccc3)c2cc1OC.Cl` (stereo not given)?
Answer: inhibition in vivo at 57.2 mg/kg [9]: 92.1%; inhibition in vivo at 114.4 mg/kg [10]: > 99%; Activity [11]: 2%; MSD [12]: 12 days; Activity [13]: 0%; MSD [14]: 28.2 days

Question: For `COc1cc2nc(N3CCCC3)nc(Nc3ccccc3C)c2cc1OC.Cl`, which inhibition in vivo at 115 mg/kg [15] is on record?
Answer: 63.8%

Question: What about the inhibition in vivo at 57.5 mg/kg [16] of the same compound?
Answer: 53.9%

Question: And the Activity [17]?
Answer: 11.6%

Question: And the Activity [18]?
Answer: 14.7%

Question: And the MSD [19]?
Answer: 14.5 days

Question: And the MSD [20]?
Answer: 7 days
